Test results from paper PMC6413339 (EBioMedicine, 2019).
Entries after “also recorded” stand apart in the source; their conditions may differ. Where two headings read alike, the source gives them in different places.

Key:
Src = molecular target: T1, Src (Homo sapiens, UniProt P12931); assay: Cell-free kinase assay (Reaction Biology, ADP-Glo); type: biochemical
T1 construct: purchased Invitrogen PR4336E
Procedure: (§1) Cell-free kinase activity assays were performed at Reaction Biology Corporation. Briefly, kinases were incubated with substrates, 100 μM ATP and a 3-fold serial dilution of compounds starting at 1 μM. DMSO was used as control. […] Experiments were performed in duplicates. The concentrations of kinases and substrates used in the assays are indicated on Table S1. Kinase activity was quantified using the ADP-Glo™ Kinase Assay System (Promega, Madison, WI) following the manufacturer's recommendations.

[1] = tested on: MOLM-14 (ITD, D835Y) cells; assay: Antiproliferative activity (CellTitre-Blue, 72 h); type: cell-based, human; settings: 72 h incubation, triplicates, read-out: IC50 (mean ±SD, nM) MOLM-14 (ITD, D835Y)
Procedure: (§2) Cells were seeded into 96-well tissue culture-treated plates at 2.0 × 10^4 cells/mL for up to 24 h. DMSO stock solutions of compounds were serially diluted first in DMSO and subsequently into RPMI before being added to the cell cultures in triplicates, with 10 μM being the highest tested concentration. The plates were incubated for 72 h as above. The CellTitre-Blue assay (Promega, Madison WI) was then added to the cultures and incubated a further 4 h before the fluorescence measured following the manufacturers recommendations. The fluorescence data from compounds were normalized to that DMSO and the resulting data fitted to a non-linear regression equation to obtain IC50 using GraphPad Prism 5.0 Software (La Jolla, CA, USA).

MV4–11 cells = assay: Antiproliferative activity (CellTitre-Blue, 72 h); type: cell-based, human; settings: Homo sapiens, MV4-11, 72 h, 72 h incubation, triplicates; read-out: IC50 (mean ±SD, nM) MV4–11
Procedure: as §2

phospho-FLT3 = assay: Western blot, MOLM-14 (ITD, D835Y) cells; type: cell-based, human
FLT3-ITD = FLT3-ITD (Homo sapiens, UniProt P36888, ITD); assay: Cell-free kinase assay, dose-response (Reaction Biology, ADP-Glo); type: biochemical
Procedure: as §1

[2] = tested on: AML cell lines (MV4–11, MOLM-14, MOLM-14 (ITD, D835Y), MOLM-14 (ITD, F691 L)); assay: Annexin V apoptosis (flow cytometry); type: cell-based, human; settings: 24 h and 48 h; dose- and time-dependent
Procedure: Cells seeded into T-25 flasks at a density of 8.0 × 10^4 cells/mL and incubated overnight at 37 °C with 5% CO2. Each treatment was performed in triplicates, with three flasks per treatment each with enough volume for both assays at the applicable time points. Following the overnight incubation, cells were treated with either DMSO or different concentrations of HSN431 (as indicated) in triplicates, mixed well and incubated. At each time point (24 and 48 h), aliquots of 1.5 mL of cells were collected from each flask and placed into labeled FACS tubes (for Annexin V apoptosis) or labeled 15 cc conical tubes (for cell cycle) and centrifuged at 300 × g for 5 min. Cells were washed twice with 1× PBS.
For Annexin V apoptosis, cell pellets were resuspended in 100 μL of 1× assay buffer and the binding of Annexin V and PI were measured by staining cells following the BD Pharmingen™ FITC Annexin V Apoptosis Detection Kit I (cat. no. 556547, BD Biosciences, San Jose, CA, USA) recommendations. Flow cytometry was performed on a a FACSCanto II flow cytometer (BD Bioscience, San Jose, CA, USA) and data analyzed using the FlowJo software (Flowjo, LLC, Ashland, OR).

MV4–11-luc cells = assay: In vivo efficacy, orthotopic human AML model; settings: for Photon intensity on whole body (mean±SEM): 25 mg/kg IP, 3×/week
Procedure: The in vivo efficacy of compounds was assessed in an orthotopic human AML model in NSG (NOD scid gamma, NOD-scid IL2Rg^null) mice that were bred at University of Maryland Baltimore (mating pairs acquired from Jackson Laboratories; Maine). […]. Three days later, engraftment was assessed by imaging on a Xenogen IVIS-2 Imaging System (Alameda) after an intraperitoneal (IP) injection of 150 mg/kg luciferin. Mice were sorted into four or five groups (n = 5) so that mean intensity (i.e., disease burden) was equal. Dosing started on day of sorting. Compounds were dissolved in 85% PBS (pH 7.4) buffer containing 10% DMSO and 5% Cremophore. The vehicle (buffer without compounds) was used as control. Mice were injected 3 to 5 days per week via IP injection. Mice were weighed on day of dosing and imaged once per week. […]. All mice were housed in a 12-h light/dark cycle with access to food and water ad libitum. Studies were performed with Institutional Animal Care and Use Committee (UMB and Purdue University) approval.
[…]. Female mice were dosed daily for 5 days via intraperitoneal injection and then monitored for an additional week for weight loss, a sign of toxicity in mice. […] To evaluate the anti-leukemic efficacy in vivo, six-week-old female NSG or NRG mice were injected intravenously with FLT3-ITD expressing acute myeloid leukemia cells (MV4–11), expressing luciferase. […] Dosing (i.p) with the compounds was then started. The mice were dosed with 25 mg/kg of the compounds three times a week (MWF). […] […].

ARAF = molecular target: T2, ARAF (Homo sapiens, UniProt P10398); assay: Cell-free kinase assay, dose-response; type: biochemical; settings: ATP 100 μM; read-out: IC50 ARAF (A-Raf)
T2 construct: purchased BPS 40010
Procedure: as §1

p70S6K = molecular target: T3, p70S6K (Homo sapiens, UniProt P23443); assay: Cell-free kinase assay, dose-response; type: biochemical; settings: ATP 100 μM
T3 construct: purchased Invitrogen PV3815
Procedure: as §1

RSK1 = molecular target: T4, RSK1 (Homo sapiens, UniProt Q15418); assay: Cell-free kinase assay, dose-response; type: biochemical; settings: ATP 100 μM
T4 construct: purchased Invitrogen PR6812A
Procedure: as §1

BRAF = molecular target: T5, BRAF (Homo sapiens, UniProt P15056); assay: Cell-free kinase assay, dose-response; type: biochemical; settings: ATP 100 μM; read-out: IC50 BRAF (B-Raf)
T5 construct: purchased BPS 40005
Procedure: as §1

MEK1 = molecular target: T6, MEK1 (Homo sapiens, UniProt Q02750); assay: Cell-free kinase assay, dose-response; type: biochemical; settings: up to 1 μM; ATP 100 μM
T6 construct: purchased Invitrogen PV3303
Procedure: as §1

p38 = molecular target: T7, p38 (Homo sapiens, UniProt Q16539); assay: Cell-free kinase assay, dose-response; type: biochemical; settings: ATP 100 μM
T7 construct: purchased Invitrogen PV3304
Procedure: as §1

RAF-1 = molecular target: T8, RAF-1 (Homo sapiens, UniProt P04049, Y340D/Y341D); assay: Cell-free kinase assay, dose-response; type: biochemical; settings: ATP 100 μM; read-out: IC50 RAF-1 (c-Raf)
T8 construct: purchased Invitrogen PV3805
Procedure: as §1

T1 sequence (P12931 whole entry): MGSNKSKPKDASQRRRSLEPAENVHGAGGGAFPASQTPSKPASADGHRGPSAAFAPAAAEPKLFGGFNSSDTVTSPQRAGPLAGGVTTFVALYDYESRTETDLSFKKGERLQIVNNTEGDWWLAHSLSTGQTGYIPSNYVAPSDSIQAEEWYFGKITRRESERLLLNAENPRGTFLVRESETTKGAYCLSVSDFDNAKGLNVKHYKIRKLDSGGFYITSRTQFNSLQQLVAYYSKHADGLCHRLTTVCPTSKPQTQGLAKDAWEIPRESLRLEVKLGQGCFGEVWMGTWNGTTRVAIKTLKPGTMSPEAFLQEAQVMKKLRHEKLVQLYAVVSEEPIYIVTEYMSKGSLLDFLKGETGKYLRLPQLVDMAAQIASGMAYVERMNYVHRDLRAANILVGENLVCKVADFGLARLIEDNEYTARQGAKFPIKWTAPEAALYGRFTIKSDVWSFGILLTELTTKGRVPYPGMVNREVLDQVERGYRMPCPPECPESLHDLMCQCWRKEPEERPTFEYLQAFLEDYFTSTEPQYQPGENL
T4 sequence (Q15418 whole entry): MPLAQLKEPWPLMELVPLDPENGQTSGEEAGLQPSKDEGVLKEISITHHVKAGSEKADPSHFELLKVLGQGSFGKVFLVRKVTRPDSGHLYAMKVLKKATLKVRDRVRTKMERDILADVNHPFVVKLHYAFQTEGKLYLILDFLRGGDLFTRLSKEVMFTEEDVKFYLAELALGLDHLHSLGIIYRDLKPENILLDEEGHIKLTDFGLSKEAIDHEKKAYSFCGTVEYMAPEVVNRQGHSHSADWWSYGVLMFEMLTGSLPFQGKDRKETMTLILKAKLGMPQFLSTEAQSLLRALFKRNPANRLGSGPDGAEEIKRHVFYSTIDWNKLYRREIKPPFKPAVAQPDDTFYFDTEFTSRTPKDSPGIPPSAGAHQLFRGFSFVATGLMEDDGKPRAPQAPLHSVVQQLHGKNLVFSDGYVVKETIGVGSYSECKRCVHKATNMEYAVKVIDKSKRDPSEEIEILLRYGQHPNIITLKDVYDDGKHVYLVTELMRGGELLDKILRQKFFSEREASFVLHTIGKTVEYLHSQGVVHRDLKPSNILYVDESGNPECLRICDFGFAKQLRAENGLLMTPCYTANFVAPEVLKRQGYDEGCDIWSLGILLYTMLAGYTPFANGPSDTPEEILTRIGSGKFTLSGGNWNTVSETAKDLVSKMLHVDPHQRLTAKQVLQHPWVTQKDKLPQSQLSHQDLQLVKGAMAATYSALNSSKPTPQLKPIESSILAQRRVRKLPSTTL
T8 sequence (P04049 306-648 Y340D/Y341D limits assumed): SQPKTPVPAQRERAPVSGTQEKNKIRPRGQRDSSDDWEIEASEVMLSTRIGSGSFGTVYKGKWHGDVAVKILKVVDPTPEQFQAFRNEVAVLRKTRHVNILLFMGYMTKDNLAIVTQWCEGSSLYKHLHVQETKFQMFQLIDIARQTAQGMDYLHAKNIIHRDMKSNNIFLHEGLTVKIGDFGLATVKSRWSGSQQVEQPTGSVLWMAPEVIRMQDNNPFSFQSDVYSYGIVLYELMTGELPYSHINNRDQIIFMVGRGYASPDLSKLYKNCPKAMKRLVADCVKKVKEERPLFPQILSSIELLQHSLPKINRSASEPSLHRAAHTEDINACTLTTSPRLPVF
T3 sequence (P23443 whole entry): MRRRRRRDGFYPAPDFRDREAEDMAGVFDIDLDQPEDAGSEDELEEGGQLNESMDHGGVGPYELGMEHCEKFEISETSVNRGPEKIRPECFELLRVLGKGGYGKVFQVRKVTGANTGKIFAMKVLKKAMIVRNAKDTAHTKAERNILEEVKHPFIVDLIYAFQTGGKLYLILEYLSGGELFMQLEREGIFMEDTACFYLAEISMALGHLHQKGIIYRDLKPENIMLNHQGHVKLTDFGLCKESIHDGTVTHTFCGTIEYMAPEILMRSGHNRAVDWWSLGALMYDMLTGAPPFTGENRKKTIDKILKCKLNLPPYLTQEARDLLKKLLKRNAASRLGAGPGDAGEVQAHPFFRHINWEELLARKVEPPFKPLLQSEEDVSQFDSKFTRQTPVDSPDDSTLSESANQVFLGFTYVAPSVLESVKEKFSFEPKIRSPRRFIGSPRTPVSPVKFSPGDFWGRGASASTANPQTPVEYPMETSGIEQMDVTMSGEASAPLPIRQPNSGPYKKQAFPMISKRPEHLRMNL
T7 sequence (Q16539 whole entry): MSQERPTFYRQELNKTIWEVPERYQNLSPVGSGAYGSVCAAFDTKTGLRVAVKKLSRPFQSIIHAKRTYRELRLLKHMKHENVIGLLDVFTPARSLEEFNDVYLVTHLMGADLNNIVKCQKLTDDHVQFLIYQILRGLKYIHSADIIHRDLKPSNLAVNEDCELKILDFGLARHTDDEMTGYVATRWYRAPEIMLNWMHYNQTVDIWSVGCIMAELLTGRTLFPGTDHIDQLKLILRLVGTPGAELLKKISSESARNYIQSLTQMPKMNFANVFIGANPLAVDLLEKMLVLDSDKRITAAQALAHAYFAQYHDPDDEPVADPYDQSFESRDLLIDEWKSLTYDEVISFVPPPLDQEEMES
T5 sequence (P15056 whole entry): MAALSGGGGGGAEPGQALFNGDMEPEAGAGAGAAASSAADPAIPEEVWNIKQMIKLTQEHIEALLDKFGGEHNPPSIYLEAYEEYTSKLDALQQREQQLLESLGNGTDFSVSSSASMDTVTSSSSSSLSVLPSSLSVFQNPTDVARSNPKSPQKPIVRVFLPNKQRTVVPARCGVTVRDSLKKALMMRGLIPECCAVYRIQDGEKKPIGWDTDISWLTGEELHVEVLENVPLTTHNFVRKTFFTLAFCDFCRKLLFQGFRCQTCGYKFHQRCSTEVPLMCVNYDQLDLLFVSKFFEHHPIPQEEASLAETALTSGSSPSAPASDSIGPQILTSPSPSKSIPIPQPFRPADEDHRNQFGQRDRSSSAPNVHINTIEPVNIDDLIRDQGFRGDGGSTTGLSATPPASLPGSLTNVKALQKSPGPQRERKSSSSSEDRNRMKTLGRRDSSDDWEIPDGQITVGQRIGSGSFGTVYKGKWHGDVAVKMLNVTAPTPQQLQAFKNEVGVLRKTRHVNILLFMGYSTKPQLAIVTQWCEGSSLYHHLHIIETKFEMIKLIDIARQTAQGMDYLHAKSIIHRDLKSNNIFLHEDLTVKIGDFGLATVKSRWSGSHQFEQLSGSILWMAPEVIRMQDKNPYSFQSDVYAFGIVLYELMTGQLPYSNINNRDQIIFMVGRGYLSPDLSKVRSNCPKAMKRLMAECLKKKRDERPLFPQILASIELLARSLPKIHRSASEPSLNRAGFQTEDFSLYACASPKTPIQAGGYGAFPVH
T2 sequence (P10398 whole entry): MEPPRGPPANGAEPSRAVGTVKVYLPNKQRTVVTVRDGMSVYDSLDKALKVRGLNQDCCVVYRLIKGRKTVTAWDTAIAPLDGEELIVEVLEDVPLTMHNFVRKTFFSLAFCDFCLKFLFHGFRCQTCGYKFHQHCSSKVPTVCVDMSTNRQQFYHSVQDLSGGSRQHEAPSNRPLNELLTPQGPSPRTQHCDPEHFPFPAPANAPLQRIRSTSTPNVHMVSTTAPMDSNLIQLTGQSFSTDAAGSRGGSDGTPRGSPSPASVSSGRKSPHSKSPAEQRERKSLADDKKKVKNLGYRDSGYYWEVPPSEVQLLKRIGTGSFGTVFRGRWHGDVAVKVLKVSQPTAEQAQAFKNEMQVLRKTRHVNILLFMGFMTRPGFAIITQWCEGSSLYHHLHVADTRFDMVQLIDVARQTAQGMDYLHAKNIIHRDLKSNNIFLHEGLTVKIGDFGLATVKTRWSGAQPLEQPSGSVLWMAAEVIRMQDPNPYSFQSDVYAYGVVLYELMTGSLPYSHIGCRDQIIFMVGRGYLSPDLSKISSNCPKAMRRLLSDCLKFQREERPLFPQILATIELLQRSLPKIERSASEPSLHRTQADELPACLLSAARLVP
T6 sequence (Q02750 whole entry): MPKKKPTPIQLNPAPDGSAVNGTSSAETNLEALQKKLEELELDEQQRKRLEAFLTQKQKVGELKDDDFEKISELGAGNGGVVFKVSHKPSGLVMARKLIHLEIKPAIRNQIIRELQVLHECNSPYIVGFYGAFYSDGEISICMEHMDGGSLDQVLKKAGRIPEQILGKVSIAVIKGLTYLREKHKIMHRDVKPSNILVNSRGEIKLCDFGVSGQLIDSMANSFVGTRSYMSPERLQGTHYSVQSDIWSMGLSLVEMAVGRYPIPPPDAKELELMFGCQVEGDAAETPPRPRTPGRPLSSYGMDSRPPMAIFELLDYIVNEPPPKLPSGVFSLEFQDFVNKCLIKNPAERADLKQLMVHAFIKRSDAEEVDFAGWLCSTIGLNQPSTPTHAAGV
Sequence of FLT3-ITD (P36888 564-993, change not shown): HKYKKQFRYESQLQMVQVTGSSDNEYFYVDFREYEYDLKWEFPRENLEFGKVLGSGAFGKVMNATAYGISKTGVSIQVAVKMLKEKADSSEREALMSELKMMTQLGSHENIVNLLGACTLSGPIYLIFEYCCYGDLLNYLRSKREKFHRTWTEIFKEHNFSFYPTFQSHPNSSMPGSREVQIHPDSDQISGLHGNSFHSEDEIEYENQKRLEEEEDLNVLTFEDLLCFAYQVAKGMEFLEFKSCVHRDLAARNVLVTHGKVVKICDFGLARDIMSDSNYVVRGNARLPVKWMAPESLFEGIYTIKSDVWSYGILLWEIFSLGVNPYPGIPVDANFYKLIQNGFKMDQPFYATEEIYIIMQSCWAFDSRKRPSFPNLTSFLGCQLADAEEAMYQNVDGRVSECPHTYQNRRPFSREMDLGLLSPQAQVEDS

Cc1ncc(C(=O)Nc2ccc(CN3CCN(C)CC3)c(C(F)(F)F)c2)cc1C#Cc1c(N)ncc2ccc(F)cc12 [Compound 7]
IC50 (Src; Src 0.6 nM, ATP 100 μM, read-out: IC50 against Src): 12.6 nM | inhibition at 0.5 µM (Src; inhibitor 500 nM, 100 μM ATP, average of duplicate): 98% | IC50 ([1]; listed as 7 (HSN431)): 16.6 ± 5.8 nM | IC50 ([1]; Homo sapiens, MOLM-14, 72 h): ≤ 15 nM | IC50 (MV4–11 cells): 0.5 ± 0.01 nM | phosphorylation of FLT3 (phospho-FLT3): Inhibition | IC50 (FLT3-ITD): 12.5 nM | total apoptosis [2]: induced apoptosis | adverse events / signs of toxicity on repeated dosing (MV4–11-luc cells; 25 mg/kg IP 3×/week for several weeks, listed as HSN431): without any adverse events; also recorded: without any obvious signs of toxicity | reduction in leukemia burden (MV4–11-luc cells; 25 mg/kg i.p. three times a week (MWF), NSG or NRG mice): > 99% | Photon intensity on whole body (mean±SEM) (MV4–11-luc cells; Day 1, n = 5): 130000 ± 21400 | Photon intensity on whole body (mean±SEM) (MV4–11-luc cells; Day 27, n = 5): 4570 ± 615 | Photon intensity on whole body (mean±SEM) (MV4–11-luc cells; Day 41, n = 5): 19600 ± 3730 | Photon intensity on whole body (mean±SEM) (MV4–11-luc cells; Day 73, n = 5): 4390 ± 140 | survival (MV4–11-luc cells; after day 73, 25 mg/kg IP 3×/week, n = 5): all five mice were still alive | mice still alive (MV4–11-luc cells; day 40, 25 mg/kg three times per week, all control mice had died): 100% | IC50 (ARAF): 27.6 nM | IC50 (p70S6K): 44.7 nM | IC50 (RSK1): 1480 nM | IC50 (BRAF): 26.3 nM | inhibition of MEK1 kinase activity (MEK1): but not the downstream effectors MEK1, ERK1 and RSK1 | IC50 (p38): 46.2 nM | IC50 (RAF-1): 12.8 nM
